Data from ChEMBL document CHEMBL1201862, “PubChem BioAssay data set” (2004).
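The compound was tested at five concentrations on cells cultured in 96-well plates, with a 48-hour exposure period. At the GI50, growth is halved.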 Active and inactive are the calls of the source. Cut-off read from the data, not from the text of the source: active = GI50 up to about 1.1 µM and inactive = higher.

What was measured:
Assay in all cases: NCI-60 cell line screen, 48 h
MDA-MB-231 = tested on: MDA-MB-231
OVCAR-5 = tested on: OVCAR-5
MDA-N = tested on: MDA-N
EKVX = tested on: EKVX
OVCAR-4 = tested on: OVCAR-4
786-0 = tested on: 786-0
NCI-H23 = tested on: NCI-H23
HCC 2998 = tested on: HCC 2998
MOLT-4 = tested on: MOLT-4
SR = tested on: SR
SNB-75 = tested on: SNB-75
SF-539 = tested on: SF-539
HOP-62 = tested on: HOP-62
UACC-62 = tested on: UACC-62
MCF7 = tested on: MCF7
SF-268 = tested on: SF-268
NCI-H522 = tested on: NCI-H522
NCI-H226 = tested on: NCI-H226
Malme-3M = tested on: Malme-3M
Hs-578T = tested on: Hs-578T

Compound	GI50 (MDA-MB-231)	GI50 (OVCAR-5)	GI50 (MDA-N)	GI50 (EKVX)	GI50 (OVCAR-4)	GI50 (786-0)	GI50 (NCI-H23)	GI50 (HCC 2998)	GI50 (MOLT-4)	GI50 (SR)	GI50 (SNB-75)	GI50 (SF-539)	GI50 (HOP-62)	GI50 (UACC-62)	GI50 (MCF7)	GI50 (SF-268)	GI50 (NCI-H522)	GI50 (NCI-H226)	GI50 (Malme-3M)	GI50 (Hs-578T)
NCCc1c[nH]c2ccc(OC(=O)C(=O)O)cc12	> 100 µM (inactive)	> 100 µM (inactive)	> 100 µM (inactive)	> 100 µM (inactive)	> 100 µM (inactive)	> 100 µM (inactive)	> 100 µM (inactive)	> 100 µM (inactive)	> 100 µM (inactive)	> 100 µM (inactive)	> 100 µM (inactive)	> 100 µM (inactive)	> 100 µM (inactive)	> 100 µM (inactive)	> 100 µM (inactive)	> 100 µM (inactive)	> 100 µM (inactive)	> 100 µM (inactive)	> 100 µM (inactive)	> 100 µM (inactive)
CC1C(c2ccc3c(c2)OCO3)c2cc3c(cc2OC1N1CCOCC1)OCO3 (stereo not given)	18.4 µM (inactive)	46.2 µM (inactive)	6.28 µM (inactive)	37.3 µM (inactive)	28.8 µM (inactive)	31.6 µM (inactive)	26.5 µM (inactive)	18.2 µM (inactive)	16.7 µM (inactive)	10.6 µM (inactive)	32.8 µM (inactive)	18.3 µM (inactive)	34.4 µM (inactive)	20.3 µM (inactive)	20.8 µM (inactive)	31.3 µM (inactive)	9.04 µM (inactive)	22 µM (inactive)	28.8 µM (inactive)	14.1 µM (inactive)
COc1cc(C2c3cc4c(cc3OC(N3CCCC3)C2C)OCO4)cc(OC)c1OC (stereo not given)	0.697 µM (active)	1.09 µM (active)	0.167 µM (active)	3.53 µM (inactive)	2.31 µM (inactive)	0.729 µM (active)	0.548 µM (active)	1.34 µM (inactive)	1.08 µM (active)	0.32 µM (active)	0.443 µM (active)	0.246 µM (active)	0.596 µM (active)	0.509 µM (active)	0.296 µM (active)	2.34 µM (inactive)	0.548 µM (active)	0.433 µM (active)	0.578 µM (active)	0.445 µM (active)
OCCN(C1=NCCN1)/[N+](=C/c1ccc(Cl)cc1)[CH-]c1ccc(Cl)cc1	> 100 µM (inactive)	> 100 µM (inactive)	> 100 µM (inactive)	> 100 µM (inactive)	> 100 µM (inactive)	> 100 µM (inactive)	> 100 µM (inactive)	29.4 µM (inactive)	26.5 µM (inactive)	99.1 µM (inactive)	> 100 µM (inactive)	> 100 µM (inactive)	> 100 µM (inactive)	> 100 µM (inactive)	> 100 µM (inactive)	> 100 µM (inactive)	84.3 µM (inactive)	> 100 µM (inactive)	> 100 µM (inactive)	> 100 µM (inactive)
CC(C)/C=N\N1C(N)=C(C#N)C(C#N)(C#N)C1C(C)C (stereo not given)	29.9 µM (inactive)	50.2 µM (inactive)	22.4 µM (inactive)	> 100 µM (inactive)	52.1 µM (inactive)	60.7 µM (inactive)	64.9 µM (inactive)	34.4 µM (inactive)	34.8 µM (inactive)	29.3 µM (inactive)	42.8 µM (inactive)	22.7 µM (inactive)	55.7 µM (inactive)	26.4 µM (inactive)	55.5 µM (inactive)	56.6 µM (inactive)	62.1 µM (inactive)	55.6 µM (inactive)	> 100 µM (inactive)	88.5 µM (inactive)
Cc1ccc(NC(=O)CSc2nc(O)nc3[nH]cnc23)cc1	> 100 µM (inactive)	49.7 µM (inactive)	90.2 µM (inactive)	> 100 µM (inactive)	> 100 µM (inactive)	44.6 µM (inactive)	> 100 µM (inactive)	> 100 µM (inactive)	58.7 µM (inactive)	35.6 µM (inactive)	> 100 µM (inactive)	24 µM (inactive)	48.5 µM (inactive)	> 100 µM (inactive)	45.2 µM (inactive)	48.5 µM (inactive)	> 100 µM (inactive)	33.8 µM (inactive)	> 100 µM (inactive)	68.9 µM (inactive)
O=C1c2ccccc2CC12Cc1ccccc1C2	66.7 µM (inactive)	> 100 µM (inactive)	56.4 µM (inactive)	20.7 µM (inactive)	16.7 µM (inactive)	36 µM (inactive)	> 100 µM (inactive)	18.5 µM (inactive)	35.7 µM (inactive)	6.12 µM (inactive)	18.2 µM (inactive)	> 100 µM (inactive)	83.9 µM (inactive)	> 100 µM (inactive)	53.5 µM (inactive)	48 µM (inactive)	36.6 µM (inactive)	> 100 µM (inactive)	70 µM (inactive)	52.2 µM (inactive)
c1ccc2nn(C3CCCCO3)nc2c1 (stereo not given)	> 100 µM (inactive)	> 100 µM (inactive)	> 100 µM (inactive)	> 100 µM (inactive)	> 100 µM (inactive)	> 100 µM (inactive)	> 100 µM (inactive)	> 100 µM (inactive)	> 100 µM (inactive)	> 100 µM (inactive)	> 100 µM (inactive)	> 100 µM (inactive)	> 100 µM (inactive)	> 100 µM (inactive)	> 100 µM (inactive)	> 100 µM (inactive)	> 100 µM (inactive)	> 100 µM (inactive)	> 100 µM (inactive)	> 100 µM (inactive)
CCCCCCCCCCCCC(=O)OC(c1cnco1)c1nc(C(O)CC(O)C(O)C(C)O)co1 (stereo not given)	1.89 µM (inactive)	11.6 µM (inactive)	1.95 µM (inactive)	11.8 µM (inactive)	1.3 µM (inactive)	0.217 µM (active)	0.336 µM (active)	1.31 µM (inactive)	0.144 µM (active)	< 0.0407 µM (active)	0.581 µM (active)	0.942 µM (active)	2.65 µM (inactive)	0.341 µM (active)	0.454 µM (active)	0.333 µM (active)	0.787 µM (active)	9.18 µM (inactive)	0.828 µM (active)	1.53 µM (inactive)
CN/N=C(\C)C(CN(C)C)C(c1ccccc1)c1c(O)c2ccccc2oc1=O (stereo not given)	> 100 µM (inactive)	> 100 µM (inactive)	> 100 µM (inactive)	> 100 µM (inactive)	99.1 µM (inactive)	> 100 µM (inactive)	> 100 µM (inactive)	> 100 µM (inactive)	75.5 µM (inactive)	67.9 µM (inactive)	> 100 µM (inactive)	> 100 µM (inactive)	> 100 µM (inactive)	31.3 µM (inactive)	> 100 µM (inactive)	> 100 µM (inactive)	> 100 µM (inactive)	> 100 µM (inactive)	78.9 µM (inactive)	> 100 µM (inactive)
C=C1C(=O)OC2/C=C(/C)C(OC(C)=O)CC(O)/C(C)=C\C(OC(=O)/C(C)=C\C)C12 (stereo not given)	> 100 µM (inactive)	> 100 µM (inactive)	48.1 µM (inactive)	78 µM (inactive)	> 100 µM (inactive)	17.1 µM (inactive)	> 100 µM (inactive)	> 100 µM (inactive)	29.6 µM (inactive)	26.7 µM (inactive)	> 100 µM (inactive)	> 100 µM (inactive)	> 100 µM (inactive)	> 100 µM (inactive)	34 µM (inactive)	> 100 µM (inactive)	10.6 µM (inactive)	> 100 µM (inactive)	14.3 µM (inactive)	> 100 µM (inactive)
COc1cc(C(=O)O[C@@H]2[C@@H](OC(=O)c3cc(OC)c(OC)c(OC)c3)[C@@H](OC)O[C@@H]3CO[C@@H](c4ccccc4)O[C@@H]23)cc(OC)c1OC	> 100 µM (inactive)	> 100 µM (inactive)	> 100 µM (inactive)	> 100 µM (inactive)	> 100 µM (inactive)	> 100 µM (inactive)	> 100 µM (inactive)	> 100 µM (inactive)	> 100 µM (inactive)	> 100 µM (inactive)	29.6 µM (inactive)	> 100 µM (inactive)	> 100 µM (inactive)	> 100 µM (inactive)	> 100 µM (inactive)	> 100 µM (inactive)	> 100 µM (inactive)	> 100 µM (inactive)	> 100 µM (inactive)	> 100 µM (inactive)
CNCCCNC1(c2cc3ccccc3s2)CCCCC1	2.99 µM (inactive)	14.3 µM (inactive)	2.2 µM (inactive)	13.3 µM (inactive)	13.5 µM (inactive)	3.47 µM (inactive)	16.4 µM (inactive)	1.29 µM (inactive)	1.94 µM (inactive)	1.52 µM (inactive)	6.17 µM (inactive)	2.36 µM (inactive)	8.93 µM (inactive)	1.94 µM (inactive)	4.12 µM (inactive)	11.3 µM (inactive)	5.64 µM (inactive)	19.5 µM (inactive)	2.28 µM (inactive)	13.2 µM (inactive)
COc1cc2c(/C=C3/C(=O)N(c4ccccc4)c4ccccc43)c(Cl)[nH]c2cc1C	3.21 µM (inactive)	3.45 µM (inactive)	1.45 µM (inactive)	3.6 µM (inactive)	2.59 µM (inactive)	3.15 µM (inactive)	2.58 µM (inactive)	2.37 µM (inactive)	2.56 µM (inactive)	3.03 µM (inactive)	3.71 µM (inactive)	2.77 µM (inactive)	3.07 µM (inactive)	2.93 µM (inactive)	3.01 µM (inactive)	3.47 µM (inactive)	1.44 µM (inactive)	24.3 µM (inactive)	4.29 µM (inactive)	4.56 µM (inactive)
